Test results: PubChem BioAssay (NCI)
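Exposure lasted 48 hours, with cells grown in 96-well plates and compounds tested at five concentrations. GI50 = concentration required for 50% inhibition of growth. At the TGI there is no net growth.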

Assays:
Test in all cases: inhibition of tumour cell growth, NCI panel, 48 h
KM12 colon = test system: KM12 colon
K-562 leukemia = test system: K-562 leukemia
SF-268 CNS = test system: SF-268 CNS
786-0 renal = test system: 786-0 renal
COLO 205 colon = test system: COLO 205 colon
SK-OV-3 ovarian = test system: SK-OV-3 ovarian
EKVX NSCLC = test system: EKVX NSCLC
MDA-MB-231 breast = test system: MDA-MB-231 breast
BT-549 breast = test system: BT-549 breast
MALME-3M melanoma = test system: MALME-3M melanoma
SW-620 colon = test system: SW-620 colon
HOP-62 NSCLC = test system: HOP-62 NSCLC
HL-60(TB) leukemia = test system: HL-60(TB) leukemia
UO-31 renal = test system: UO-31 renal
OVCAR-8 ovarian = test system: OVCAR-8 ovarian
M14 melanoma = test system: M14 melanoma
CAKI-1 renal = test system: CAKI-1 renal
RPMI-8226 leukemia = test system: RPMI-8226 leukemia
HCT-116 colon = test system: HCT-116 colon
CCRF-CEM leukemia = test system: CCRF-CEM leukemia
UACC-257 melanoma = test system: UACC-257 melanoma
NCI-H226 lung = test system: NCI-H226 lung
HOP-92 NSCLC = test system: HOP-92 NSCLC
DU-145 prostate = test system: DU-145 prostate
IGROV1 ovarian = test system: IGROV1 ovarian
HCT-15 colon = test system: HCT-15 colon
A498 renal = test system: A498 renal
T-47D breast = test system: T-47D breast
SK-MEL-28 melanoma = test system: SK-MEL-28 melanoma
UACC-62 melanoma = test system: UACC-62 melanoma
OVCAR-5 ovarian = test system: OVCAR-5 ovarian
SK-MEL-2 melanoma = test system: SK-MEL-2 melanoma
SK-MEL-5 melanoma = test system: SK-MEL-5 melanoma
NCI-H460 lung = test system: NCI-H460 lung
HT29 colon = test system: HT29 colon
NCI-H522 lung = test system: NCI-H522 lung
A549 NSCLC = test system: A549 NSCLC
SF-539 CNS = test system: SF-539 CNS
LOX IMVI melanoma = test system: LOX IMVI melanoma
SF-295 CNS = test system: SF-295 CNS
SNB-75 CNS = test system: SNB-75 CNS
TK-10 renal = test system: TK-10 renal
RXF 393 renal = test system: RXF 393 renal
MDA-MB-435 = test system: MDA-MB-435
HCC-2998 colon = test system: HCC-2998 colon
MCF7 breast = test system: MCF7 breast
U251 CNS = test system: U251 CNS
SNB-19 CNS = test system: SNB-19 CNS
OVCAR-3 ovarian = test system: OVCAR-3 ovarian
HS 578T breast = test system: HS 578T breast
NCI-H23 lung = test system: NCI-H23 lung
OVCAR-4 ovarian = test system: OVCAR-4 ovarian
SN12C renal = test system: SN12C renal
PC-3 prostate = test system: PC-3 prostate
MOLT-4 leukemia = test system: MOLT-4 leukemia
NCI/ADR-RES ovarian = test system: NCI/ADR-RES ovarian
SR leukemia = test system: SR leukemia
ACHN renal = test system: ACHN renal

`COc1ccc(C(=O)c2cc(OC)c(OC)c(OC)c2)cc1/C=C/C(=O)c1ccc(O)cc1` gave a GI50 (KM12 colon) of 2.44 µM, a TGI (KM12 colon) of 7.05 µM and a GI50 (K-562 leukemia) of 0.357 µM. The TGI (K-562 leukemia) was > 100 µM, the GI50 (SF-268 CNS) was 3.98 µM and the TGI (SF-268 CNS) was 95.1 µM. For the same compound, the GI50 (786-0 renal) was 1.66 µM, the TGI (786-0 renal) was 3.74 µM and the GI50 (COLO 205 colon) was 15.1 µM. For the same compound, the TGI (COLO 205 colon) was 36.3 µM, the GI50 (SK-OV-3 ovarian) was 16.3 µM and the TGI (SK-OV-3 ovarian) was > 100 µM. It also gave a GI50 (EKVX NSCLC) of 4.55 µM, a TGI (EKVX NSCLC) of 19.4 µM and a GI50 (MDA-MB-231 breast) of 4.02 µM. The TGI (MDA-MB-231 breast) was 24.9 µM, the GI50 (BT-549 breast) was 2.02 µM and the TGI (BT-549 breast) was 5.32 µM. It also gave a GI50 (MALME-3M melanoma) of 9.69 µM, a TGI (MALME-3M melanoma) of 25.1 µM and a GI50 (SW-620 colon) of 2.51 µM. For the same compound, the TGI (SW-620 colon) was 10.2 µM, the GI50 (HOP-62 NSCLC) was 21.1 µM and the TGI (HOP-62 NSCLC) was 53.4 µM. The GI50 (HL-60(TB) leukemia) was 0.693 µM, the TGI (HL-60(TB) leukemia) was > 100 µM and the GI50 (UO-31 renal) was 3.2 µM. The TGI (UO-31 renal) was 16.2 µM, the GI50 (OVCAR-8 ovarian) was 4.48 µM and the TGI (OVCAR-8 ovarian) was > 100 µM. It also gave a GI50 (M14 melanoma) of 1.98 µM, a TGI (M14 melanoma) of 5.86 µM and a GI50 (CAKI-1 renal) of 3.07 µM. The TGI (CAKI-1 renal) was 17.3 µM, the GI50 (RPMI-8226 leukemia) was 1.56 µM and the TGI (RPMI-8226 leukemia) was 82.9 µM. For the same compound, the GI50 (HCT-116 colon) was 1.58 µM, the TGI (HCT-116 colon) was 3.33 µM and the GI50 (CCRF-CEM leukemia) was 0.872 µM. For the same compound, the TGI (CCRF-CEM leukemia) was > 100 µM, the GI50 (UACC-257 melanoma) was 7.77 µM and the TGI (UACC-257 melanoma) was 26.6 µM. It also gave a GI50 (NCI-H226 lung) of 2.5 µM, a TGI (NCI-H226 lung) of 7.78 µM and a GI50 (HOP-92 NSCLC) of 1.21 µM. It also gave a TGI (HOP-92 NSCLC) of 3.31 µM, a GI50 (DU-145 prostate) of 1.88 µM and a TGI (DU-145 prostate) of 3.45 µM. The GI50 (IGROV1 ovarian) was 9.94 µM, the TGI (IGROV1 ovarian) was 34.8 µM and the GI50 (HCT-15 colon) was 2.15 µM. The TGI (HCT-15 colon) was 7.42 µM, the GI50 (A498 renal) was 3.14 µM and the TGI (A498 renal) was 15.1 µM. The GI50 (T-47D breast) was 19 µM, the TGI (T-47D breast) was > 100 µM and the GI50 (SK-MEL-28 melanoma) was 4.75 µM. The TGI (SK-MEL-28 melanoma) was 17.5 µM, the GI50 (UACC-62 melanoma) was 1.69 µM and the TGI (UACC-62 melanoma) was 3.77 µM. The GI50 (OVCAR-5 ovarian) was 11.2 µM, the TGI (OVCAR-5 ovarian) was 25.1 µM and the GI50 (SK-MEL-2 melanoma) was 5.01 µM. For the same compound, the TGI (SK-MEL-2 melanoma) was 26.5 µM, the GI50 (SK-MEL-5 melanoma) was 1.46 µM and the TGI (SK-MEL-5 melanoma) was 2.98 µM. It also gave a GI50 (NCI-H460 lung) of 2.56 µM, a TGI (NCI-H460 lung) of 7.23 µM and a GI50 (HT29 colon) of 5.35 µM. The TGI (HT29 colon) was > 100 µM, the GI50 (NCI-H522 lung) was 2.69 µM and the TGI (NCI-H522 lung) was 15.8 µM. The GI50 (A549 NSCLC) was 18.7 µM, the TGI (A549 NSCLC) was > 100 µM and the GI50 (SF-539 CNS) was 2.72 µM. It also gave a TGI (SF-539 CNS) of 7.9 µM, a GI50 (LOX IMVI melanoma) of 1.75 µM and a TGI (LOX IMVI melanoma) of 3.9 µM. The GI50 (SF-295 CNS) was 6.5 µM, the TGI (SF-295 CNS) was 20.1 µM and the GI50 (SNB-75 CNS) was 1.62 µM. It also gave a TGI (SNB-75 CNS) of 4.77 µM, a GI50 (TK-10 renal) of 11.8 µM and a TGI (TK-10 renal) of 28.5 µM. The GI50 (RXF 393 renal) was 3.57 µM, the TGI (RXF 393 renal) was 14.9 µM and the GI50 (MDA-MB-435) was 1.18 µM. It also gave a TGI (MDA-MB-435) of 11.3 µM, a GI50 (HCC-2998 colon) of 1.66 µM and a TGI (HCC-2998 colon) of 3.16 µM. For the same compound, the GI50 (MCF7 breast) was 3.16 µM, the TGI (MCF7 breast) was 15.9 µM and the GI50 (U251 CNS) was 4.58 µM. The TGI (U251 CNS) was 18.3 µM, the GI50 (SNB-19 CNS) was 4.42 µM and the TGI (SNB-19 CNS) was 19.7 µM. It also gave a GI50 (OVCAR-3 ovarian) of 3 µM, a TGI (OVCAR-3 ovarian) of 8.47 µM and a GI50 (HS 578T breast) of 18.3 µM. For the same compound, the TGI (HS 578T breast) was > 100 µM, the GI50 (NCI-H23 lung) was 2.93 µM and the TGI (NCI-H23 lung) was 10.2 µM. It also gave a GI50 (OVCAR-4 ovarian) of 2.73 µM, a TGI (OVCAR-4 ovarian) of 58.4 µM and a GI50 (SN12C renal) of 2.66 µM. It also gave a TGI (SN12C renal) of 12.6 µM, a GI50 (PC-3 prostate) of 1.69 µM and a TGI (PC-3 prostate) of 4.71 µM. For the same compound, the GI50 (MOLT-4 leukemia) was 0.841 µM, the TGI (MOLT-4 leukemia) was > 100 µM and the GI50 (NCI/ADR-RES ovarian) was 2.68 µM. For the same compound, the TGI (NCI/ADR-RES ovarian) was 8.09 µM, the GI50 (SR leukemia) was 0.433 µM and the TGI (SR leukemia) was > 100 µM. The GI50 (ACHN renal) was 5.22 µM and the TGI (ACHN renal) was 21.5 µM.
